# Legend:
# [1] = tested on: human brain endothelial cells (hBEC); experiment: FD-glucose uptake in human brain endothelial cells (hBEC); type: cell-based; conditions: hINS 1.7 μM, AAC2 0.1 μM, 50 min; FIG. 42B
# Description: FD-glucose uptake in human brain endothelial cells (hBEC, n=8 per treatment) treated with vehicle (Veh; PBS, open bar) or hINS (1.7 μM), human leptin (hLep; 62.5 nM, hatched bar), or AAC2 (0.1 μM black bar) in the presence and absence of GLUT1 inhibitor (BAY-876; 10 nM in DMSO). Cells were pre-treated with or without BAY-876 for 40 min and then FD glucose and treatment reagents were added for additional 50 min of incubation. Data (%) was normalized to FD-glucose uptake in control (Veh) hBEC without inhibitor (100%).
# PPARα-LBD = PPARα-LBD luciferase reporter in transiently transfected HEK293 cells; type: cell-based, human; conditions: EREG, 12 hrs
# Description: FIGS. 11A to 11I show adipokine Ereg is bilaterally associated with obesity and thermogenesis and activates PPARα. […] Microarray gene analysis was performed using Affymetrix microarray. FIG. 11B: Ereg expression was measured in non-differentiated and differentiated (day 5) 3T3-L1 adipocytes (Mann-Whitney test) using a customized NanoString mouse panel. FIG. 11C: Ereg expression was measured in differentiated (day 5) 3T3-L1 and Aldh1a1^−/− adipocytes by Taqman and normalized to TATA box protein (TBP). FIG. 11D: Plasma EREG concentrations were measured in mice from Study 1 by western blot. […] FIG. 11E: Plasma EREG concentrations were measured and quantified in iAb of WT and ob/ob mice from Study 2 by western blot (n=5 per each group). […] FIG. 11F: EREG was measured in iAb, subcutaneous and brown fat by western blot. Fat pads were dissected from WT mice on regular chow (Study 1). FIG. 11G: Ucp2 and Ucp1 expression was measured in differentiated 3T3-L1 adipocytes (day 5) stimulated with vehicle (PBS) or recombinant EREG (50 ng/mL) added in the differentiation medium I and II. Expression level were measured by Taqman and normalized by TBP. FIGS. 11H and 11I: HEK293 cells were transiently transfected with PPARα-LBD, UASTK-luciferase, and renilla. […] Data represents % PPARα-LBD activation. Asterisks indicate significant difference (p<0.05) compared to vehicle control, #, indicates statistical difference between PPARα-LBD activation by EREG alone and in the presence of inhibitors. Data represent mean±SD. The Mann-Whitney test was used throughout these studies for group comparison.
# HEK293 cells ([…] cells, 24-well plates) were used for transient transfection experiments. Cells were transfected with human PPARα-LBD construct, yeast UASTK luciferase reporter (SwitchGear Genomics, Menlo Park, CA), using Fugene (Roche Applied Science, Indianapolis, IN). Transfections were carried out in OptiMeM (Invitrogen, Carlsbad, CA) medium for 12 hours as described previously. Luciferase was measured using Promega assay according to manufacturer's instructions
# 3T3-L1 adipocytes = experiment: Thermogenic gene expression in 3T3-L1 adipocytes (TaqMan / RT-PCR); type: cell-based, mouse
# Description: FIGS. 9A to 9D show DRG neurons (500 neurons per well) cultured in DRG culture medium only, or DRG culture medium with NT-3 (1 ng/mL), with NGF (10 ng/mL), with WT secretome (1/1, v/v), or with Aldh1a1^−/− secretome (1/1, v/v) for 24 hours. WT and Aldh1a1^−/− adipocytes differentiated for 5 days. Secretome is the media collected from these cells for 24 h. Neurite outgrowth parameters were assayed using the Thermo Scientific™ ArrayScan™ XTI Live High Content microscope and analyzed with the Neuronal Profiling Algorithm (ThermoFisher). Nine independent experiments were performed using DRG from three mice. Each DRG batch was analyzed in triplicate. Data are shown as mean±SD obtained with one DRG batch. Asterisks indicate P<0.05 between different groups; Mann-Whitney U test. FIG. 9A: Representative images show ~25% of area used for the automatic quantification of neuronal parameters in FIG. 3 per one condition. […] FIG. 9B: Secreted EFNA5 levels in the medium from 3T3-L1 preadipocytes and adipocytes differentiated for 4d were analyzed by ELISA. FIG. 9C: Basal metabolic rate (heat) was measured in PBS- and EFNA5-injected mice from Table 1, Study 4 by an open circuit indirect calorimetry treadmill. […] Expression was measured by RT-PCR and normalized by 18S.
# FIGS. 11A to 11I show adipokine Ereg is bilaterally associated with obesity and thermogenesis and activates PPARα. […] FIG. 11B: Ereg expression was measured in non-differentiated and differentiated (day 5) 3T3-L1 adipocytes (Mann-Whitney test) using a customized NanoString mouse panel. FIG. 11C: Ereg expression was measured in differentiated (day 5) 3T3-L1 and Aldh1a1^−/− adipocytes by Taqman and normalized to TATA box protein (TBP). FIG. 11D: Plasma EREG concentrations were measured in mice from Study 1 by western blot. […] FIG. 11E: Plasma EREG concentrations were measured and quantified in iAb of WT and ob/ob mice from Study 2 by western blot (n=5 per each group). […] FIG. 11F: EREG was measured in iAb, subcutaneous and brown fat by western blot. […] Expression level were measured by Taqman and normalized by TBP. […]
Substance,glucose uptake in human blood-brain barrier endothelial cells [1],induction of PPARα (PPARα-LBD activation) (PPARα-LBD),"expression of thermogenic gene Pgc1a (3T3-L1 adipocytes; 10 ng/ml recombinant EREG, FIG. 22)","Ucp1 and Ucp2 expression (3T3-L1 adipocytes; recombinant EREG 50 ng/mL, day 5)"
insulin: insulin (bovine or human),not,–,–,–
"EREG: Epiregulin, member of the epidermal growth factor family; recombinant mouse or human protein",–,dose dependent induction,increases,induced

# Reference: patent US12697366B2, “Thermogenic compositions and methods” (Ohio State Innovation Foundation, priority 2016, dated 2026)
